Measurements from patent US20090163508A1, “AMIDE COMPOUND” (TAKEDA PHARMACEUTICAL COMPANY LIMITED, priority 2007, published 2009).

test system: mouse; experiment: Analgesic effect in acetic acid writhing test on mouse; format: in vivo; details: po, 20 min, 10 mg/kg orally, 60 minutes before 0.6% acetic acid i.p., count over 20 minutes relative to the reference group
Protocol: A suspension of the test compound (10 mg/kg) was orally administered to a mouse. 60 minutes after the administration, a 0.6% aqueous acetic acid solution was intraperitoneally administered in an amount of 10 mL/kg. The mouse was accommodated in a special cage from immediately after the administration until 20 minutes after, and the writhing response was counted. The mean count number was compared relative to the reference group, so as to examine the difference (student's t-test), and the analgesic effect was evaluated.

Compound | response vs control in vivo at 10 mg/kg [%]
O=C(Nc1cccnn1)N1CCN(c2nccc(-c3ccc(F)cc3F)n2)CC1 [Example 17, 4-[4-(2,4-difluorophenyl)pyrimidin-2-yl]-N-pyridazin-3-ylpiperazine-1-carboxamide] | 56.9
Cc1noc(NC(=O)N2CCN(c3ccnc(-c4cccc(F)c4F)n3)CC2)c1C [Example 5, 4-[2-(2,3-difluorophenyl)pyrimidin-4-yl]-N-(3,4-dimethylisoxazol-5-yl)piperazine-1-carboxamide] | 42.2
O=C(Nc1cccnn1)N1CCN(c2nccc(-c3ccccc3)n2)CC1 [Example 79, 4-(4-phenylpyrimidin-2-yl)-N-pyridazin-3-ylpiperazine-1-carboxamide] | 38.9
Cc1noc(NC(=O)N2CCN(c3cncc(-c4ccc(F)cc4F)n3)CC2)c1C [Example 14, 4-[6-(2,4-difluorophenyl)pyrazin-2-yl]-N-(3,4-dimethylisoxazol-5-yl)piperazine-1-carboxamide] | 67.2
O=C(Nc1cccnc1)N1CCN(c2nccc(-c3ccccc3)n2)CC1 [Example 77, 4-(4-phenylpyrimidin-2-yl)-N-pyridin-3-ylpiperazine-1-carboxamide] | 46.8
O=C(Nc1cccnn1)N1CCN(c2nccc(-c3ccc(F)c(F)c3)n2)CC1 [Example 110, 4-[4-(3,4-difluorophenyl)pyrimidin-2-yl]-N-pyridazin-3-ylpiperazin-1-carboxamide] | 34.7
Cc1noc(NC(=O)N2CCN(c3cc(-c4ccc(F)cc4F)ncn3)CC2)c1C [Example 19, 4-[6-(2,4-difluorophenyl)pyrimidin-4-yl]-N-(3,4-dimethylisoxazol-5-yl)piperazine-1-carboxamide] | 51.9
O=C(Nc1cccnc1)N1CCN(c2nccc(-c3ccc(F)cc3F)n2)CC1 [Example 15, 4-[4-(2,4-difluorophenyl)pyrimidin-2-yl]-N-pyridin-3-ylpiperazine-1-carboxamide] | 66.7
